Source: the supplement of paper PMC10331698
± gives the standard deviation of the averaged measurements.

How the values were obtained:
Experiment in all cases: level (log10 ratio to DMSO vehicle control); higher = higher biomarker level / cell amount than vehicle control
[1] = compound: OCC(F)(F)C(F)(F)C(F)(F)C(F)F [1H,1H,5H-Perfluoropentanol] (in DMSO)
Protocol: (§1)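 BioMAP Diversity Plus panel of 12 human primary cell co-culture systems (3C, 4H, LPS, SAg, BT, BF4T, BE3C, CASM3C, HDF3CGF, KF3CT, MyoF, Mphg). Compounds were added 1 h before stimulation and left for 24 h (MyoF 48 h; BT 72 h for soluble read-outs or 6 d for IgG). Biomarkers were read by ELISA, cytotoxicity by SRB, PBMC viability and proliferation by Alamar Blue. Each well value was divided by the mean of 8 DMSO control wells on the same plate and log10 transformed; duplicate blinded samples were tested at 4 concentrations.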

Perfluorononanoic acid = compound: O=C(O)C(F)(F)C(F)(F)C(F)(F)C(F)(F)C(F)(F)C(F)(F)C(F)(F)C(F)(F)F [Perfluorononanoic acid] (in DMSO)
Protocol: as §1

Perfluoroundecanoic acid = compound: O=C(O)C(F)(F)C(F)(F)C(F)(F)C(F)(F)C(F)(F)C(F)(F)C(F)(F)C(F)(F)C(F)(F)C(F)(F)F [Perfluoroundecanoic acid] (in DMSO); settings: 6700 nM
Protocol: as §1

[2] = compound: OCC(F)(F)OC(F)(F)C(F)(F)OC(F)(F)C(F)(F)OC(F)(F)CO [1H,1H,11H,11H-Perfluorotetraethylene glycol] (in DMSO)
Protocol: as §1

[3] = compound: O=C(O)CCC(F)(C(F)(F)F)C(F)(F)F [4,4-bis(Trifluoromethyl)-4-fluoropropanoic acid] (in DMSO)
Protocol: as §1

[4] = compound: O=C(O)C(F)(F)C(F)(F)C(F)(F)OC(F)(F)F [Perfluoro(4-methoxybutanoic) acid] (in DMSO)
Protocol: as §1

[5] = compound: C[C@@H]1C[C@H]2[C@@H]3CCC4=CC(=O)C=C[C@]4(C)[C@@]3(F)[C@@H](O)C[C@]2(C)[C@@]1(O)C(=O)COP(=O)(O)O [Dexamethasone sodium phosphate] (in DMSO)
Protocol: as §1

Test System	level (log10) ([1]; 6700 nM)	level (log10) ([1]; 20000 nM)	level (log10) ([1]; 60000 nM)	level (log10) (Perfluorononanoic acid; 6700 nM)	level (log10) (Perfluorononanoic acid; 20000 nM)	level (log10) (Perfluoroundecanoic acid)	level (log10) ([2]; 6700 nM)	level (log10) ([2]; 20000 nM)	level (log10) ([2]; 60000 nM)	level (log10) ([3]; 6700 nM)	level (log10) ([3]; 20000 nM)	level (log10) ([3]; 60000 nM)	level (log10) ([4]; 6700 nM)	level (log10) ([4]; 20000 nM)	level (log10) ([4]; 60000 nM)	level (log10) ([5]; 1500 nM)	level (log10) ([5]; 4400 nM)	level (log10) ([5]; 13000 nM)	level (log10) ([5]; 40000 nM)
LPS:CCL2/MCP-1	-0.006 ± 0.0071	0.004 ± 0.014	0.007 ± 0.04	-0.0035 ± 0.033	0.0165 ± 0.016	0.0015 ± 0.0078	-0.0125 ± 0.0035	-0.033 ± 0.028	-0.0405 ± 0.025	0.024 ± 0.037	0 ± 0.014	0.0155 ± 0.07	0.004 ± 0.013	-0.001 ± 0.024	0.025 ± 0.058	0.023 ± 0.011	-0.0045 ± 0.012	-0.013 ± 0.0071	-0.0105 ± 0.088
LPS:CD40	-0.017 ± 0.016	-0.0085 ± 0.005	0.0145 ± 0.015	-0.0305 ± 0.019	-0.039 ± 0.011	-0.019 ± 0.05	-0.0565 ± 0.026	-0.058 ± 0.054	-0.126 ± 0.035	0.005 ± 0.027	-0.0115 ± 0.021	-0.0385 ± 0.0035	-0.0385 ± 0.06	0 ± 0.055	-0.0465 ± 0.094	0.0175 ± 0.054	-0.035 ± 0.03	-0.012 ± 0.037	-0.0635 ± 0.019
LPS:CD62E/E-Selectin	-0.0165 ± 0.00071	0.0125 ± 0.0064	0.0055 ± 0.022	-0.009 ± 0.013	-0.01 ± 0.0085	-0.014 ± 0.016	0.004 ± 0.025	-0.012 ± 0.016	-0.0165 ± 0.016	0.0115 ± 0.023	0.0055 ± 0.013	-0.007 ± 0.016	-0.009 ± 0.0099	-0.007 ± 0.014	-0.002	0 ± 0.0014	-0.015 ± 0.0014	-0.0105 ± 0.00071	-0.0115 ± 0.005
LPS:CD69	-0.02 ± 0.011	-0.0015 ± 0.013	0.0175 ± 0.0078	-0.0275 ± 0.022	-0.038 ± 0.013	-0.0585 ± 0.05	-0.0115 ± 0.025	-0.072 ± 0.035	-0.095 ± 0.011	-0.0145 ± 0.077	-0.0265 ± 0.015	-0.045 ± 0.025	0.02 ± 0.11	0.0405 ± 0.12	0.0255 ± 0.086	0.016 ± 0.1	-0.009 ± 0.052	-0.042 ± 0.038	-0.0335 ± 0.039
LPS:CD106/VCAM-1	0.007 ± 0.014	-0.008 ± 0.0042	0.0095 ± 0.0035	-0.017 ± 0.014	-0.002 ± 0.0057	-0.0095 ± 0.043	0.001 ± 0.045	-0.002 ± 0.034	-0.041 ± 0.052	-0.016 ± 0.034	-0.0255 ± 0.0092	-0.023 ± 0.021	-0.019 ± 0.02	-0.005 ± 0.025	-0.0155 ± 0.019	0.0095 ± 0.005	-0.0285 ± 0.026	-0.0135 ± 0.0035	-0.0375 ± 0.023
LPS:CD141/Thrombomodulin	-0.0125 ± 0.0035	0.008 ± 0.02	0.023 ± 0.0099	-0.018 ± 0.048	-0.018 ± 0.017	0.018 ± 0.016	0.0725 ± 0.076	0.09 ± 0.067	0.157 ± 0.056	-0.0025 ± 0.0035	-0.009 ± 0.028	-0.002 ± 0.0099	-0.028 ± 0.023	-0.0285 ± 0.052	-0.0195 ± 0.053	0.05 ± 0.031	0.035 ± 0.028	0.0125 ± 0.039	0.032 ± 0.027
LPS:CD142/Tissue Factor	-0.001 ± 0.021	0.017 ± 0.03	0.023 ± 0.021	0.01 ± 0.016	-0.001 ± 0.02	-0.023 ± 0.014	-0.0455 ± 0.016	-0.0665 ± 0.0064	-0.0575 ± 0.07	0.045 ± 0.031	0.038 ± 0.059	0.02 ± 0.051	-0.0085 ± 0.066	-0.012 ± 0.054	0.016 ± 0.051	0.0495 ± 0.026	0.03 ± 0.023	0.014 ± 0.03	0.038 ± 0.028
LPS:CXCL8/IL-8	0.004 ± 0.0057	0.0185 ± 0.005	0.001 ± 0.025	0.024 ± 0.013	0.0355 ± 0.0092	-0.04 ± 0.035	-0.0025 ± 0.00071	-0.01 ± 0.0057	-0.02 ± 0.011	0.011 ± 0.0028	0.007 ± 0.02	0.0135 ± 0.054	-0.0075 ± 0.05	0.0075 ± 0.049	0.0545 ± 0.005	0.026 ± 0.014	-0.017 ± 0.02	-0.0135 ± 0.025	-0.0475 ± 0.076
LPS:IL-1alpha	-0.048 ± 0.021	-0.0295 ± 0.0064	-0.003 ± 0.0099	-0.0315 ± 0.0064	-0.03 ± 0.014	-0.103 ± 0.019	-0.02 ± 0.024	-0.017 ± 0.0057	-0.006 ± 0.042	0.009 ± 0.072	0.0215 ± 0.022	0.0215 ± 0.032	-0.023 ± 0.013	-0.0195 ± 0.04	0.0005 ± 0.09	-0.0215 ± 0.0035	-0.0475 ± 0.1	-0.0575 ± 0.035	-0.0835 ± 0.08
LPS:M-CSF	-0.01 ± 0.0014	-0.0015 ± 0.029	0.0125 ± 0.049	-0.001 ± 0.045	0.035 ± 0.024	0.049 ± 0.0028	0.0105 ± 0.03	-0.0025 ± 0.036	0.0355 ± 0.011	-0.0345 ± 0.0021	-0.0145 ± 0.029	-0.0245 ± 0.00071	-0.014 ± 0.014	-0.024	-0.008 ± 0.011	-0.0225 ± 0.016	-0.0445 ± 0.039	-0.0265 ± 0.0078	-0.0515 ± 0.012
LPS:SRB	-0.017 ± 0.0014	-0.0115 ± 0.00071	-0.0005 ± 0.0078	-0.0065 ± 0.00071	0.0045 ± 0.0078	0.005 ± 0.0057	-0.0175 ± 0.0078	-0.0255 ± 0.013	-0.086 ± 0.013	-0.0045 ± 0.0064	-0.0035 ± 0.00071	0.0135 ± 0.0092	-0.0085 ± 0.00071	-0.008 ± 0.0071	-0.0085 ± 0.0035	0.008 ± 0.0085	-0.012 ± 0.0071	-0.003 ± 0.0099	0.006 ± 0.031
LPS:sPGE2	-0.071 ± 0.011	-0.027 ± 0.018	-0.0175 ± 0.036	-0.0695 ± 0.00071	-0.144 ± 0.0064	-0.0665 ± 0.044	0.032 ± 0.034	0.0965 ± 0.0078	0.056 ± 0.011	-0.0445 ± 0.019	-0.018 ± 0.033	0.011 ± 0.0085	-0.0115 ± 0.026	0.01 ± 0.047	-0.012 ± 0.017	-0.028 ± 0.028	-0.0525 ± 0.015	-0.121 ± 0.044	-0.155 ± 0.016
LPS:sTNF-alpha	0.006 ± 0.041	0.0065 ± 0.044	0.01 ± 0.028	-0.0115 ± 0.028	0.0115 ± 0.025	-0.0415 ± 0.00071	0.0035 ± 0.0078	0.002 ± 0.0085	-0.082 ± 0.0099	-0.046 ± 0.045	-0.013 ± 0.05	-0.003 ± 0.018	-0.017 ± 0.0071	-0.0055 ± 0.005	-0.0115 ± 0.00071	-0.083 ± 0.047	-0.0655 ± 0.032	-0.19 ± 0.038	-0.262 ± 0.032
SAg:CCL2/MCP-1	0.016 ± 0.0085	0.0115 ± 0.035	-0.014 ± 0.035	-0.0015 ± 0.0035	0.0555 ± 0.013	-0.0155 ± 0.0035	-0.023 ± 0.038	-0.0395 ± 0.03	-0.094 ± 0.024	0 ± 0.033	-0.0125 ± 0.00071	-0.0125 ± 0.025	-0.0325 ± 0.022	-0.0225 ± 0.012	0.017 ± 0.024	-0.024 ± 0.031	-0.029 ± 0.013	-0.089 ± 0.0042	-0.07
SAg:CD38	0.0465 ± 0.018	0.0415 ± 0.022	0.0305 ± 0.049	0.0155 ± 0.069	0.0205 ± 0.056	-0.0175 ± 0.022	-0.0035 ± 0.049	-0.0255 ± 0.023	-0.0895 ± 0.033	-0.02 ± 0.047	-0.008 ± 0.013	-0.0025 ± 0.019	-0.0375 ± 0.016	-0.0225 ± 0.005	-0.0195 ± 0.0035	-0.014 ± 0.018	-0.027 ± 0.021	-0.037 ± 0.0028	-0.0215 ± 0.023
